The subject of series [1] is Vaccinia virus (IHD strain). Also noted: species or system BALB/c mice. As to conditions: mouse, in vivo.
For a further series, the system named is CD11c+ dendritic cells. As to the kind of experiment: In vivo CFSE labeling of dendritic cells, migration to mediastinal lymph nodes (flow cytometry). Also on record: species or system C57BL/6 mice. The settings on record: 1 nmol i.t., 24 h after drug administration. For orientation: A flow cytometer gives signals particle by particle.
Series [2] has as its system neutrophils in BAL fluids. As to the kind of experiment: BAL cell counts (Guava cytometer, Wright-Giemsa differential) after i.t. administration. The series is classed as in vivo, C57BL/6 mice.
Series [3] concerns Venezuelan equine encephalitis virus (Trinidad Donkey, NR-332). Also on record: species or system BALB/c mice. The settings on record: mouse, in vivo, sc.
Series [4] has as its system influenza A/California/04/2009 (H1N1) virus. Also on record: species or system BALB/c mice. The settings on record: mouse, in vivo.
The subject of a further series is West Nile Virus (WNV). Nature of the series: West Nile virus s.c. infection model. The series is classed as in vivo, C57BL/6 mice.
A short description of a further series: Particle size in PBS. The series is classed as physicochemical.
The next series concerns lung parenchyma. Nature of the series: Lung histology (H&E) after i.t. administration. The settings on record: 1 nmol i.t., 6 and 24 h post treatment.
In the next series the test system is B220+ B cells. As to the kind of experiment: B cell numbers in lymph nodes after pulmonary administration (flow cytometry). As to conditions: 1 nmol, 7 days post treatment.
Series [5] in a line: Body weight monitoring / maximum tolerated dose after pulmonary administration.
Series [6] relates to cytokines and chemokines in BAL fluids and sera. As to the kind of experiment: Luminex bead assay of cytokines and chemokines in BAL fluids and sera after pulmonary administration.
The mark [7] stands for this setting: 1 nmol i.t., 6 h post-treatment, vs vehicle.
Where [8] appears, read: 24 h after pulmonary (i.n.) administration, up to a 4 nmol dose.

“And” between values parts separate entries of the source, which are not always exact repeats. Equal values may be shown once.

As to `Nc1ccn(C[C@@H](CO)OCP(=O)(O)O)c(=O)n1` [Cidofovir, reference compound], in series [1], the Survivors/Total was 10/10, the “effects on body weight” value is given as “superior to treatments with 1V270 that were started on the same day” and the “mice protected from death” value turned out to be 100%.
As to `CCCCCCCC/C=C\CCCCCCCC(=O)OCC(COP(=O)(O)OCCNC(=O)c1ccc(Cn2c(=O)[nH]c3c(N)nc(OCCOC)nc32)cc1)OC(=O)CCCCCCC/C=C\CCCCCCCC` (stereo not shown) [1V270, 2-(4-{[6-Amino-2-(2-methoxyethoxy)-8-oxo-7H-purin-9(8H)-yl]methyl}benzamido)ethyl 2,3-Bis(oleoyloxy)propyl Phosphate], the “CD11c+ DC migration to the mediastinal lymph nodes” value in the series on CD11c+ dendritic cells is “enhanced”. Besides, the “cell infiltration and neutrophil recruitment to BAL fluids in MyD88 or TLR7 null mice” value in [2] (1 nmol i.t., 24 h, Myd88-/- or Tlr7-/- mice) is “diminished”. Besides, the “mononuclear cells in BAL fluids” value in series [2] (1 nmol i.t., 24 h after treatment, also elevated in vehicle-treated mice) was “slightly elevated”. Further, the “neutrophil population in BAL fluids” value in [2] (1 nmol i.t., 24 h and 48 h after treatment) was “significant increase”. Moreover, the “total cell numbers in the BAL fluids” value in series [2] (1 nmol i.t., monitored for 72 h) is “increased over 48 h and declined to near baseline levels 72 h post pulmonary administration”. Further, the “neutrophil influx dose response” value in series [2] (24 h post treatment, i.t.) is listed as “dose responsive between 0.1 to 10 nmol”. In addition, the “mice protected from encephalitis” value in [3] is “Eighty”. In series [4], the “mice protected from lethal H1N1 pulmonary influenza infection” value was 100%. Moreover, the “survival compared to placebo-treated mice” value in the series with West Nile Virus (WNV) (1 nmol/mouse i.n. at days -3 and -1, WNV s.c. day 0) is recorded as “not significant”. In addition, in the series with West Nile Virus (WNV) (1 nmol/mouse i.n. on day -1, WNV s.c. day 0 (P≦0.05)), the “survival compared to placebo-treated mice” value is “statistically improved”. Moreover, in series [1], the “Mean Day of Death ± SD” value was 7.2 ± 0.6 days and 8.4 ± 0.5 days and 9.0 days and 8.0 days and 7.3 ± 0.8 days; the Survivors/Total was 0/10 and 10/10*** and 5/10** and 9/10*** and 8/10*** and 3/10*; the “body weights during the infection” value is given as “increased over the first three days before declining”; the “mice protected from death” value is 90-100%. For the same compound, in series [1], the “preserving body weight, rank among treatments” value is reported as “best effect in preserving body weight”. In the series “Particle size in PBS” (dispersed in 50 μL PBS), the particle size was 100-150 nm. In “Particle size in PBS” (in PBS, regardless of concentration), the “particle size, average” value is recorded as “about 110 nm”. For the same compound, the “inflammatory cell infiltration into the lung parenchyma” value in the series on lung parenchyma is given as “did not show inflammatory cell infiltration into the lung parenchyma”. In the series on B220+ B cells, the “B cell number in the cervical, mesenteric and inguinal nodes” value was “did not significantly increase”; the “B cell number in the draining mediastinal lymph nodes” value was “did not significantly increase”. Also, in series [5] (75 nmol i.t., Tlr7-/- mice), the “weight loss in TLR7 null mice” value is given as “did not lose weight”. Besides, in series [5] (MTD 75 nmol/animal vs effective dose 1 nmol), the “MTD relative to the effective dose” value was 75 times. Also, the “weight loss compared to vehicle treated mice” value in [5] (effective dose (1 nmoles), i.t.) is listed as “did not cause significant weight loss”. In series [5] (pulmonary route, mice), the effective dose was 1 nmol and the “maximum tolerated dose (MTD)” value is reported as 75 nmol/animal. Moreover, in [6] (setting [7]), the “IL-6 in BAL fluids” value is given as “significantly increased”, the “KC in BAL fluids” value is recorded as “significantly increased” and the “MCP-1 in BAL fluids” value is “significantly increased”. In addition, the “IP-10 induction in BAL fluids (surrogate marker of type 1 IFN)” value in [6] (1 nmol i.t., monitored up to 72 h) is “peaked at 24 h and declined to baseline levels 72 h post treatment”. Further, in series [6] (setting [8]), the IL-6 in sera result is listed as “minimal insignificant increase” and the TNFα in sera entry is given as “minimal insignificant increase”.

These data come from patent US20160199499A1, “USES OF PH[…] SYNTHETIC TLR7 AGONISTS” (priority 2013, published 2016).
